# Results: patent publication US12018048B2, “Anthelmintic depsipeptide compounds” (BOEHRINGER INGELHEIM ANIMAL HEALTH USA INC., priority 2015, dated 2024)
# Where two headings read alike, the source gives them in different places.
# Legend:
# [1] = test system: Haemonchus contortus L1 larvae; test: Screening method to test activity against Haemonchus contortus (L1 larval development, microtitre plate); conditions: 96 h; for MIC90: read-out: median MIC90 value; for EC50: read-out: median EC50 value
# Method: METHOD A: Screening method to test activity of compounds against Haemonchus contortus.
# Twenty L1 Haemonchus contortus larvae were added to wells of a microtitre plate containing a nutrient medium and the test compound in DMSO. An analysis was conducted at 4 days to determine the extent of development of the larvae. Larvae exposed to DMSO alone served as controls.
# The EC50 and MIC90 recordings were obtained using different instruments.
# [2] = amide bond, 24-membered ring
# [3] = test system: microfilaria of Dirofilaria immitis; test: Screening method to test activity against microfilaria of Dirofilaria immitis (survival, microtitre plate); format: cell-based; conditions: 72 h, read-out: median EC50 value
molecule,measurement,setting,value
"C[C@H]1OC(=O)[C@H](CC2CC2)N(C)C(=O)[C@@H](Cc2ccc(N3CCOCC3)cc2)OC(=O)[C@H](CC2CC2)N(C)C(=O)[C@@H](C)OC(=O)[C@H](CC2CC2)N(C)C(=O)[C@@H](Cc2ccc(N3CCOCC3)cc2)OC(=O)[C@H](CC2CC2)N(C)C1=O [Compound 6-1A, (3S,6R,9S,12R,15S,18R,21S,24R)-3,9,15,21-tetrakis(cyclopropylmethyl)-4,10,12,16,22,24-hexamethyl-6,18-bis([[4-(morpholin-4-yl)phenyl]methyl])-1,7,13,19-tetraoxa-4,10,16,22-tetraazacyclotetracosan-2,5,8,11,14,17,20,23-octone]",MIC90,[1],1 to 10 µM
same,"ring closure, yield after HPLC","[2]; from H-MeAla(cyclopropyl)-dPhLac(4-morpholino)-MeAla(cyclopropyl)-dLac-MeAla(cyclopropyl)-dPhLac(4-morpholino)-MeAla(cyclopropyl)-dLac-OH, BOP-Cl/DIEA, DCM, 1.5 mM",13%
same,EC50,[3],100 to 1000 nM
CN1C(=O)COC(=O)[C@H](CC2CC2)N(C)C(=O)[C@@H](Cc2ccc(C3CCOCC3)cc2)OC(=O)[C@H](CC(C)(C)F)N(C)C(=O)COC(=O)[C@H](CC2CC2)N(C)C(=O)[C@@H](Cc2ccc(C3CCOCC3)cc2)OC(=O)[C@@H]1CC(C)(C)F,"ring closure, yield after HPLC","[2]; from H-MeLeu(4-F)-dPhLac(4-oxan-4-yl)-MeAla(3-cyclopropyl)-Glycolic-MeLeu(4-F)-dPhLac(4-oxan-4-yl)-MeAla(3-cyclopropyl)-Glycolic-OH, BOP-Cl/DIEA, DCM, 2.57 mM",33%
"C[C@H]1OC(=O)[C@H](CC2CC2)N(C)C(=O)[C@@H](Cc2ccc(C3CCOCC3)cc2)OC(=O)[C@H](CC(C)(C)F)N(C)C(=O)[C@@H](C)OC(=O)[C@H](CC2CC2)N(C)C(=O)[C@@H](Cc2ccc(C3CCOCC3)cc2)OC(=O)[C@H](CC(C)(C)F)N(C)C1=O [Compound 7-34A, (3S,6R,9S,12R,15S,18R,21S,24R)-3,15-bis(cyclopropylmethyl)-9,21-bis(2-fluoro-2-methylpropyl)-4,-10,12,16,22,24-hexamethyl-6,18-bis([[4-(oxan-4-yl)phenyl]methyl])-1,7,13,19-tetraoxa-4,10,16,22-te-traazacyclotetracosan-2,5,8,11,14,17,20,23-octone]",EC50,[1],< 100 nM
same,MIC90,[1],< 0.1 µM
same,"ring closure, yield after HPLC","[2]; from H-MeLeu(4-F)-dPhLac(4-oxan-4-yl)-MeAla(3-cyclopropyl)-dLac-MeLeu(4-F)-dPhLac(4-oxan-4-yl)-MeAla(3-cyclopropyl)-dLac-OH, BOP-Cl/DIEA, DCM, 2.75 mM",14%
same,EC50,[3],< 100 nM
"CC(C)C[C@H]1C(=O)O[C@H](C)C(=O)N(C)[C@@H](CC2CC2)C(=O)O[C@H](Cc2ccc(N3CCOCC3)nc2)C(=O)N(C)[C@@H](CC(C)C)C(=O)O[C@H](C)C(=O)N(C)[C@@H](CC2CC2)C(=O)O[C@H](Cc2ccc(N3CCOCC3)nc2)C(=O)N1C [Compound 9-7A, (3S,6R,9S,12R,15S,18R,21S,24R)-3,15-bis(cyclopropylmethyl)-4,6,10,16,18,22-hexamethyl-9,21-bis(2-methylpropyl)-12,24-bis([[6-(morpholin-4-yl)pyridin-3-yl]methyl])-1,7,13,19-tetraoxa-4,10,16,22-tetraazacyclotetracosan-2,5,8,11,14,17,20,23-octone]","ring closure, yield after HPLC","[2]; from H-MeAla(cyclopropyl)-dLac(3-[6-(morpholin-4-yl)pyridin-3-yl])-MeLeu-dLac-MeAla(cyclopropyl)-dLac(3-[6-(morpholin-4-yl)pyridin-3-yl])-MeLeu-dLac-OH?, BOP-Cl/DIEA, DCM, 4.2 mM",12%
same,EC50,[3],1000 to 10000 nM
"(3S,6R,9S,12R,15S,18R,21S,24R)-3,15-bis(cyclopropylmethyl)-9,21-bis(2-fluoro-2-methylpropyl)-4,10,12,16,22,24-hexamethyl-6,18-bis([[4-(morpholin-4-yl)phenyl]methyl])-1,7,13,19-tetraoxa-4,10,16,22-tetraazacyclotetracosan-2,5,8,11,14,17,20,23-octone","ring closure, yield after HPLC",[2]; DIEA,24%
CC(C)C[C@H]1C(=O)O[C@H](C)C(=O)N(C)[C@@H](CC(C)(C)F)C(=O)O[C@H](Cc2ccc(C3CCOCC3)cc2)C(=O)N(C)C2(CC2)C(=O)O[C@H](C)C(=O)N(C)[C@@H](CC(C)(C)F)C(=O)O[C@H](Cc2ccc(C3CCOCC3)cc2)C(=O)N1C,"ring closure, yield after HPLC","[2]; from H-MeAcc(1-aminocyclopropanecarboxylic)-dLac-MeLeu(4-F)-dPhLac(4-oxan-4-yl)-MeLeu-dLac-MeLeu(4-F)-dPhLac(4-oxan-4-yl)-OH, BOP-Cl/DIEA, DCM, 0.87 mM",39%
"C[C@H]1OC(=O)C2(CC2)N(C)C(=O)[C@@H](Cc2ccc(C3CCOCC3)cc2)OC(=O)[C@H](CC(C)(C)F)N(C)C(=O)[C@@H](C)OC(=O)C2(CC2)N(C)C(=O)[C@@H](Cc2ccc(C3CCOCC3)cc2)OC(=O)[C@H](CC(C)(C)F)N(C)C1=O [Compound 969-34A, (6R,9S,12R,20R,23S,26R)-9,23-bis(2-fluoro-2-methylpropyl)-4,10,12,18,24,26-hexamethyl-6,20-bis([[4-(oxan-4-yl)phenyl]methyl])-7,13,21,27-tetraoxa-4,10,18,24-tetraazadispiro[2.11.2^[15].11^[3]]octacosan-5,8,11,14,19,22,25,28-octone]",EC50,[1],1000 to 10000 nM
same,"ring closure, yield after HPLC","[2]; from H-MeAcc(1-aminocyclopropanecarboxylic)-dLac-MeLeu(4-F)-dPhLac(4-oxan-4-yl)-MeAcc(1-aminocyclopropanecarboxylic)-dLac-MeLeu(4-F)-dPhLac(4-oxan-4-yl)-OH, BOP-Cl/DIEA, DCM, 3.2 mM",29%
same,EC50,[3],1000 to 10000 nM
"CC(C)C[C@H]1C(=O)O[C@H](C)C(=O)N(C)[C@@H](CC2CC2)C(=O)O[C@H](Cc2ccc(N3CCOCC3)cc2)C(=O)N(C)[C@@H](CC(C)C)C(=O)O[C@H](C)C(=O)N(C)[C@@H](CC2CC2)C(=O)O[C@H](Cc2ccc(N3CCOCC3)cc2)C(=O)N1C [Compound 6-7A, (3S,6R,9S,12R,15S,18R,21S,24R)-3,15-bis(cyclopropylmethyl)-4,6,10,16,18,22-hexamethyl-9,21-bis(2-methylpropyl)-12,24-bis([[4-(morpholin-4-yl)phenyl]methyl])-1,7,13,19-tetraoxa-4,10,16,22-tetraazacyclotetracosan-2,5,8,11,14,17,20,23-octone]",MIC90,[1],0.1 to 1 µM
same,"ring closure, yield after HPLC","[2]; from H-MeAla(cyclopropyl)-dPhLac(4-morpholino)-MeLeu-dLac-MeAla(cyclopropyl)-dPhLac(4-morpholino)-MeLeu-dLac-OH, BOP-Cl/DIEA, DCM, 3.2 mM",8%
same,EC50,[3],100 to 1000 nM
